# Assays:
# bamyardgrass = assay: Test B flood test barnyardgrass; type: in vivo, Echinochloa crus-galli
# Outline: (§1)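 Flood test on plants grown to the 2-leaf stage; treated plants kept in greenhouse twelve to sixteen days, then visually rated against controls on a 0 (no effect) to 10 (complete control) scale.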
# cocklebur = assay: Test B pre/postemergence cocklebur; type: in vivo, Xanthium strumarium
# Outline: (§2)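 Herbicidal effect was estimated by eye on a ten-point control scale after plants spent twelve to sixteen days in a greenhouse following soil or foliar treatment. Foliar sprays targeted plants at one to four leaves; all doses were formulated in a non-phytotoxic solvent with surfactant.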
# giant foxtail = assay: Test B pre/postemergence giant foxtail; type: in vivo, Setaria faberii
# Outline: as §2
# rape = assay: Test B pre/postemergence rape; type: in vivo, Brassica napus
# Outline: as §2
# wheat = assay: Test B pre/postemergence wheat; type: in vivo, Triticum aestivum; settings: Preemergence
# Outline: as §2
# bedstraw = assay: Test B pre/postemergence bedstraw; type: in vivo, Galium aparine
# Outline: as §2
# purple nutsedge = assay: Test B pre/postemergence purple nutsedge; type: in vivo, Cyperus rotundus; settings: Postemergence
# Outline: as §2
# rice = assay: Test B flood test rice; type: in vivo, Oryza sativa
# Outline: as §1
# surinam grass = assay: Test B pre/postemergence surinam grass; type: in vivo, Brachiaria decumbens
# Outline: as §2
# soybean = assay: Test B pre/postemergence soybean; type: in vivo, Glycine max; settings: Preemergence
# Outline: as §2
# morningglory = assay: Test B pre/postemergence morningglory; type: in vivo, Ipomoea hederacea
# Outline: as §2
# smallflower flatsedge = assay: Test B flood test smallflower flatsedge; type: in vivo, Cyperus difformis
# Outline: as §1
# sugar beet = assay: Test B pre/postemergence sugar beet; type: in vivo, Beta vulgaris; settings: Preemergence
# Outline: as §2
# pigweed = assay: Test B pre/postemergence pigweed; type: in vivo, Amaranthus retroflexus
# Outline: as §2
# blackgrass = assay: Test B pre/postemergence blackgrass; type: in vivo, Alopecurus myosuroides
# Outline: as §2
# corn = assay: Test B pre/postemergence corn; type: in vivo, Zea mays
# Outline: as §2
# duck salad = assay: Test B flood test duck salad; type: in vivo, Heteranthera limosa
# Outline: as §1
# velvetleaf = assay: Test B pre/postemergence velvetleaf; type: in vivo, Abutilon theophrasti; settings: Preemergence
# Outline: as §2
# wild oat = assay: Test B pre/postemergence wild oat; type: in vivo, Avena fatua; settings: Preemergence
# Outline: as §2
# crabgrass = assay: Test B pre/postemergence crabgrass; type: in vivo, Digitaria sanguinalis
# Outline: as §2
# [1] = Rate 62 g/ha, headed Pre-emergence (flood test species), scale 0 to 10 (0 no effect, 10 complete control)
# [2] = Rate 125 g/ha, Pre-emergence, flood test species, scale 0 to 10 where 0 is no effect and 10 is complete control
# [3] = Rate 250 g/ha, Pre-emergence, flood-test species, scale 0 to 10, 0 is no effect, 10 is complete control
# [4] = Rate 500 g/ha, Pre-emergence, flood test species, scale 0 to 10 (0 no effect, 10 complete control)
# [5] = Preemergence, Rate 31 g/ha, visual rating, scale 0 to 10 (0 no effect, 10 complete control)
# [6] = Preemergence, Rate 62 g/ha, scale of 0 to 10 where 0 is no effect and 10 is complete control
# [7] = Rate 31 g/ha, Postemergence, scale 0 to 10
# [8] = Rate 62 g/ha, Postemergence, scale of 0 to 10 where 0 is no effect and 10 is complete control
# [9] = Rate 125 g/ha, Postemergence, scale 0 to 10
# [10] = Rate 125 g/ha, Preemergence, scale of 0 to 10 where 0 is no effect and 10 is complete control
# [11] = Preemergence, Rate 250 g/ha, scale of 0 to 10 where 0 is no effect and 10 is complete control
# [12] = Rate 31 g/ha, visual rating, scale 0 to 10 (0 no effect, 10 complete control)
# [13] = Rate 62 g/ha, scale of 0 to 10 where 0 is no effect and 10 is complete control
# [14] = Rate 250 g/ha, scale of 0 to 10 where 0 is no effect and 10 is complete control
# [15] = Rate 125 g/ha, scale of 0 to 10 where 0 is no effect and 10 is complete control
smiles,measurement,setting,value
CCC(=O)Cn1c(=O)on(C(=O)N(c2ccc(F)cc2)C(C)C)c1=O [Compound 252],Barnyardgrass plant response rating,bamyardgrass; [1],0
same,Barnyardgrass plant response rating,bamyardgrass; [2],0
same,Barnyardgrass plant response rating,bamyardgrass; [3],0
same,Barnyardgrass plant response rating,bamyardgrass; [4],0
same,Cocklebur plant response rating,cocklebur; [5],0
same,Cocklebur plant response rating,cocklebur; [6],0
same,Cocklebur plant response rating,cocklebur; [7],0
same,Cocklebur plant response rating,cocklebur; [8],0
same,Cocklebur plant response rating,cocklebur; [9],0
same,Cocklebur plant response rating,cocklebur; [10],0
same,"Plant response rating (0 to 10; 0 is no effect, 10 is complete control), Cocklebur","cocklebur; Rate 250 g/ha, Postemergence",0
same,Giant foxtail plant response rating,giant foxtail; [5],3
same,Giant foxtail plant response rating,giant foxtail; [6],3
same,Giant foxtail plant response rating,giant foxtail; [11],10
same,Giant foxtail plant response rating,giant foxtail; [7],0
same,Giant foxtail plant response rating,giant foxtail; [10],9
same,"Plant response rating (0 to 10; 0 is no effect, 10 is complete control), Giant foxtail","giant foxtail; Rate 250 g/ha, Postemergence",4
same,Rape plant response rating,rape; [5],0
same,Rape plant response rating,rape; [6],0
same,Rape plant response rating,rape; [11],3
same,Rape plant response rating,rape; [7],0
same,Rape plant response rating,rape; [10],0
same,"Plant response rating (0 to 10; 0 is no effect, 10 is complete control), Rape","rape; Rate 250 g/ha, Postemergence",0
same,Wheat plant response rating,wheat; [12],0
same,Wheat plant response rating,wheat; [13],0
same,Wheat plant response rating,wheat; [14],2
same,Wheat plant response rating,wheat; [15],0
same,Bedstraw plant response rating,bedstraw; [5],0
same,Bedstraw plant response rating,bedstraw; [6],0
same,Bedstraw plant response rating,bedstraw; [11],0
same,Bedstraw plant response rating,bedstraw; [7],0
same,Bedstraw plant response rating,bedstraw; [8],0
same,Bedstraw plant response rating,bedstraw; [9],0
same,Bedstraw plant response rating,bedstraw; [10],0
same,"Plant response rating (0 to 10; 0 is no effect, 10 is complete control), Bedstraw","bedstraw; Rate 250 g/ha, Postemergence",0
same,Nutsedge plant response rating,"purple nutsedge; Rate 31 g/ha, scale 0 to 10",0
same,"Plant response rating (0 to 10; 0 is no effect, 10 is complete control), Nutsedge",purple nutsedge; Rate 250 g/ha,0
same,Rice plant response rating,rice; [1],0
same,Rice plant response rating,rice; [2],0
same,Rice plant response rating,rice; [3],0
same,Rice plant response rating,rice; [4],0
same,B. signalgrass plant response rating,surinam grass; [5],0
same,B. signalgrass plant response rating,surinam grass; [6],0
same,B. signalgrass plant response rating,surinam grass; [11],0
same,B. signalgrass plant response rating,surinam grass; [7],0
same,B. signalgrass plant response rating,surinam grass; [8],0
same,B. signalgrass plant response rating,"surinam grass; Rate 125 g/ha, Postemergence, scale 0 (no effect) to 10 (complete control)",0
same,B. signalgrass plant response rating,surinam grass; [10],0
same,"Plant response rating (0 to 10; 0 is no effect, 10 is complete control), B. signalgrass","surinam grass; Rate 250 g/ha, Postemergence",0
same,Soybean plant response rating,soybean; [12],0
same,Soybean plant response rating,soybean; [13],0
same,Soybean plant response rating,soybean; [14],0
same,Soybean plant response rating,soybean; [15],0
same,Morningglory plant response rating,morningglory; [5],0
same,Morningglory plant response rating,morningglory; [6],0
same,Morningglory plant response rating,morningglory; [11],0
same,Morningglory plant response rating,morningglory; [7],2
same,Morningglory plant response rating,morningglory; [10],0
same,"Plant response rating (0 to 10; 0 is no effect, 10 is complete control), Morningglory","morningglory; Rate 250 g/ha, Postemergence",3
same,S. Flatsedge plant response rating,smallflower flatsedge; [1],0
same,S. Flatsedge plant response rating,smallflower flatsedge; [2],0
same,S. Flatsedge plant response rating,smallflower flatsedge; [3],0
same,S. Flatsedge plant response rating,smallflower flatsedge; [4],0
same,Sugarbeets plant response rating,sugar beet; [12],0
same,Sugarbeets plant response rating,sugar beet; [13],0
same,Sugarbeets plant response rating,sugar beet; [14],3
same,Sugarbeets plant response rating,sugar beet; [15],3
same,Redroot pigweed plant response rating,pigweed; [5],0
same,Redroot pigweed plant response rating,pigweed; [6],0
same,Redroot pigweed plant response rating,pigweed; [11],0
same,Redroot pigweed plant response rating,pigweed; [7],0
same,Redroot pigweed plant response rating,pigweed; [10],0
same,"Plant response rating (0 to 10; 0 is no effect, 10 is complete control), Redroot pigweed","pigweed; Rate 250 g/ha, Postemergence",0
same,Blackgrass plant response rating,blackgrass; [5],0
same,Blackgrass plant response rating,blackgrass; [6],0
same,Blackgrass plant response rating,blackgrass; [11],4
same,Blackgrass plant response rating,blackgrass; [7],0
same,Blackgrass plant response rating,blackgrass; [8],0
same,Blackgrass plant response rating,blackgrass; [9],2
same,Blackgrass plant response rating,blackgrass; [10],2
same,"Plant response rating (0 to 10; 0 is no effect, 10 is complete control), Blackgrass","blackgrass; Rate 250 g/ha, Postemergence",5
same,Corn plant response rating,corn; [5],0
same,Corn plant response rating,corn; [6],0
same,Corn plant response rating,corn; [11],0
same,Corn plant response rating,corn; [7],0
same,Corn plant response rating,corn; [8],0
same,Corn plant response rating,corn; [9],0
same,Corn plant response rating,corn; [10],0
same,"Plant response rating (0 to 10; 0 is no effect, 10 is complete control), Corn","corn; Rate 250 g/ha, Postemergence",0
same,Ducksalad plant response rating,duck salad; [1],0
same,Ducksalad plant response rating,duck salad; [2],0
same,Ducksalad plant response rating,duck salad; [3],0
same,Ducksalad plant response rating,duck salad; [4],0
same,Velvetleaf plant response rating,velvetleaf; [12],0
same,Velvetleaf plant response rating,velvetleaf; [13],0
same,Velvetleaf plant response rating,velvetleaf; [14],2
same,Velvetleaf plant response rating,velvetleaf; [15],0
same,Wild oats plant response rating,wild oat; [12],0
same,Wild oats plant response rating,wild oat; [13],0
same,Wild oats plant response rating,wild oat; [14],3
same,Wild oats plant response rating,wild oat; [15],0
same,Crabgrass plant response rating,crabgrass; [5],0
same,Crabgrass plant response rating,crabgrass; [6],0
same,Crabgrass plant response rating,crabgrass; [11],4
same,Crabgrass plant response rating,crabgrass; [7],0
same,Crabgrass plant response rating,crabgrass; [10],2
same,"Plant response rating (0 to 10; 0 is no effect, 10 is complete control), Crabgrass","crabgrass; Rate 250 g/ha, Postemergence",6

# Reference: patent publication US6737383B1, “Herbicidal oxadiazolidines” (priority 1999, dated 2004)
